Patent US20080108645A1, “Dihydrotetrabenazines And Pharmaceutical Compositions Containing Them” (CAMBRIDGE LABORATORIES, (IRELAND), LTD., priority 2004, published 2008)
Entries after “also recorded” stand apart in the source; their conditions may differ.

Legend:
[1] = target: T1, Serotonin Transporter (SERT) (Homo sapiens, UniProt P31645); test: Serotonin transporter (SERT) radioligand binding; conditions: for IC50 / Percentage Inhibition of Specific Binding, SERT: 0.15 nM [125I] RTI-55; for IC50: read-out: IC50 value (in parentheses), SERT; for Percentage Inhibition of Specific Binding, SERT: 10 μM
T1 construct: expressed in transfected cells; host or cells: HEK-293 cells
T1 sequence (P31645 whole entry): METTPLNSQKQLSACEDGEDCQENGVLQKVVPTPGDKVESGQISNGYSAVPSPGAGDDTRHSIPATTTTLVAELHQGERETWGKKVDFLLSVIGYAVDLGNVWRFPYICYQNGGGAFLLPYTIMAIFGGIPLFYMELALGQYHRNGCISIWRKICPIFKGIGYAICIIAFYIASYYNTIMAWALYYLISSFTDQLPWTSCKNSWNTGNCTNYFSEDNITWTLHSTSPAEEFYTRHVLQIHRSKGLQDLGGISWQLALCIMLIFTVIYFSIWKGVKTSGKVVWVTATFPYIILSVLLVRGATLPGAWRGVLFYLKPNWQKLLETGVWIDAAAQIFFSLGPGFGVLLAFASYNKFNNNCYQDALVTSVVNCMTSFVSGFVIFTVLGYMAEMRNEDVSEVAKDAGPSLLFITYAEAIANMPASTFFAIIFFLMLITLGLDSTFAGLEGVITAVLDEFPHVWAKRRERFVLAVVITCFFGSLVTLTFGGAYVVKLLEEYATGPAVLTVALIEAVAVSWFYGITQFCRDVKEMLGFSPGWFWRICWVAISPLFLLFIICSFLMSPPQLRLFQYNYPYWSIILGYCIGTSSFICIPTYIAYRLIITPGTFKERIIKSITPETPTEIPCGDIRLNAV
Procedure: (§1) (a) Adrenergic α2A Receptor: • Reference: S. Uhlen et al. J. Pharmacol. Exp. Ther., 271:1558-1565 (1994) • Source: Human recombinant insect Sf9 cells • Ligand: 1 nM [^3H] […] J. Pharmacol., 99:803-809, (1990) • Source: Wistar rat cerebral cortex • Ligand: 2 nM [3H]

Adrenergic α2B Receptor = target: T2, Adrenergic α2B Receptor (Homo sapiens, UniProt P18089); test: Adrenergic α2B receptor radioligand binding; conditions: 10 μM; 2.5 nM [3H] Rauwolscine
T2 construct: expressed in transfected cells; host or cells: CHO-K1 cells
T2 sequence (P18089 1-450): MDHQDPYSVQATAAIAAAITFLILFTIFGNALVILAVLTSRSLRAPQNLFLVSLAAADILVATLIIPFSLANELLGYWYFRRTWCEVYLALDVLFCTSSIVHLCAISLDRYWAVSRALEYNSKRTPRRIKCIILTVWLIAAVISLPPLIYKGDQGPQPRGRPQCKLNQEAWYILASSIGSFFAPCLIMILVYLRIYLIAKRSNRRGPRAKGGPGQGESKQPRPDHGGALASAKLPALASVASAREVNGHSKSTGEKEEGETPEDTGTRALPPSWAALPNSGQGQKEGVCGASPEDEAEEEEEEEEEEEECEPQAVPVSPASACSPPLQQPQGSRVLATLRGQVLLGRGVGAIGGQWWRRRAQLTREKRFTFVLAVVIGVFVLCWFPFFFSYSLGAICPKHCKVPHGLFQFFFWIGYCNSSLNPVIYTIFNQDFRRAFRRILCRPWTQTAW
Procedure: as §1

5-HT1D/1B receptors = test: 5-HT1D/1B binding assay, [N-methyl 3H] GR-125743, rat forebrain P2 membranes
Procedure: The ability of Compound B and Compound C to bind to 5-HT1D/1B receptors was tested using an assay based on the one described by Millan, M J et al. (2002) Pharmacol. Biochem. Behav. […] [N-methyl ^3H] GR-125743 was used as the radioligand for both 5-HT1D and 5-HT1B receptors. Adult SD rat forebrain P2 membranes (Chazot et al., 1993) were used for the assay. The assay buffer used was 50 mM Tris-HCl pH 7.7 at room temperature containing 4 mM calcium chloride, 0.1% ascorbic acid and 10 μM pargyline. 5-HT (10 μM) was used to define non-specific binding. Incubation with 1 nM [^3H] GR-125743 was carried out for 1 hour at room temperature, and the reaction was terminated by rapid filtration using a Brandel Harvester through GF/B filters pre-soaked in 0.1% polyethyleneimine, followed by three washes with ice-cold buffer (supplemented with 0.1% BSA). A dose range of 10^−10-10^−4M was utilised. The resultant competition curves were analysed using the GraphPad Prism 4 package.

Caco-2 monolayer = conditions: Caco-2
Text: The assay relies on the ability of Caco-2 cells to differentiate into enterocytes when cultured on a microporous filter for a period of approximately 21 days. During the culture period, the Caco-2 cells undergo spontaneous morphological and biochemical changes, which produce a polarized monolayer with a well-defined brush border on the apical surface, as well as tight cellular junctions. Therefore, these cells may be used as an in vitro model for the analysis of drug permeability.
Absorption across the Caco-2 monolayer can be measured in two directions: apical-to-basolateral or basolateral-to-apical, by adding the compound to the apical or the basolateral chamber, respectively. At various time-points, samples are collected from the receiver-chamber for analysis for the rate of absorption as measured by the apparent permeability coefficient (Papp) across the monolayer.
The Papp value reflects a combination of the test article permeability through both transcellular (through cell membranes) and the paracellular (across the tight junctions between the cells) pathways. The relative contribution of these pathways depends upon the pKa, partition coefficient (log D), molecular radius, and charge of the test article at a given pH. Papp values can then be used to rank-order compounds for their permeability through Caco-2 monolayers.
Absorption was determined at pH 7.4 across cell monolayers in the apical-to-basolateral direction. Caco-2 cells used to estimate Papp values were grown for 26 days on Transwell inserts in 12-well plates. Monolayer integrity was verified before and after the absorption assay by the methods of transepithelial electrical resistance (Ohm-cm^2) and Lucifer Yellow.
On the day of the assay, the reference standards were diluted in Hank's balanced salt solution (HBSS), pH 7.4 to a final concentration of 50 μM. […] Dihydrotetrabenazine isomer samples were prepared at a concentration of 50 mM in DMSO. Each stock solution was further diluted in HBSS buffer (pH 7.4) to a final working concentration of 50 μM
The Caco-2 cell suspensions were prepared as follows. […] Once the cell density and viability were determined, Caco-2 cells were diluted in culture medium to a final working concentration of 2.0×10^5 cells/ml. The Caco-2 culture medium contained Dulbecco's Modified Eagle Medium, 10% fetal bovine serum, 100 μM non-essential amino acids, 100 U/ml penicillin and 100 μg/ml streptomycin.
Costar polycarbonate membranes (0.4 μm pore size) were pre-equilibrated with Caco-2 culture medium for 1 hour in a 37° C. water-jacketed incubator with 5% CO2. The content of the apical chamber was removed and replaced with 500 μl of Caco-2 cell suspension (200 000 cells/ml). Cells were further maintained in culture for 26 days in a 37° C. water-jacketed incubator with 5% CO2.
Prior to the assay, all monolayers were washed twice with HBSS and their transepithelial electrical resistance (TEER) was measured with a Millicell-ERS meter. TEER values obtained in the absence of cells were subtracted as background signal. Only monolayer with TEER values over 150 Ohm-cm^2 were used for the absorption assay experiment.
All absorption experiments were conducted in triplicate at pH 7.4. The rate of absorption of each reference standard and dihydrotetrabenazine test article was assessed in the apical-to-basolateral direction. Aliquots (100 μl) of each working solution (reference standards and test articles at 50 μM) were set aside at the beginning of the assay for the determination of the initial concentration (Co).
Absorption experiments were initiated by replacing the content of the donor chamber with 500 μl of Hanks Balanced Salt Solution containing test articles or reference compounds. Cells were returned to the CO2 incubator for the absorption assay. Samples of 100 μl were collected from the receiver and donor chambers after 1 hour and were used to determine the percentage of recovery.

Dopamine D3 Receptor = target: T3, Dopamine D3 Receptor (Homo sapiens, UniProt P35462); test: Dopamine D3 receptor radioligand binding; conditions: 10 μM; 0.7 nM [3H] Spiperone
T3 construct: expressed in transfected cells; host or cells: CHO cells
T3 sequence (P35462 whole entry): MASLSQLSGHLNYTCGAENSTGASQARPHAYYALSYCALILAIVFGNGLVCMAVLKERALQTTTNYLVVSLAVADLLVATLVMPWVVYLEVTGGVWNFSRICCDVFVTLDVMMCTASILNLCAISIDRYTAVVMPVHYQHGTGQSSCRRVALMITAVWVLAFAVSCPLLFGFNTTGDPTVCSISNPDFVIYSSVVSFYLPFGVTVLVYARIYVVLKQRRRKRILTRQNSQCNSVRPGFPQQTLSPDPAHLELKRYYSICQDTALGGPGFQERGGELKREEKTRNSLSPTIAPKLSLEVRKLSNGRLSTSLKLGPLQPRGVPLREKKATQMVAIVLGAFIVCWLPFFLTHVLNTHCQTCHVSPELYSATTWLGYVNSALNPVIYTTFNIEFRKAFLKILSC
Procedure: as §1

[2] = tested on: Catechol O-Methyl Transferase (COMT); test: Catechol O-Methyl Transferase (COMT) inhibition; assay type: biochemical, Porcine; conditions: for Percentage Inhibition of Enzyme Activity, COMT: 10 μM
Procedure: Isomers B and C were tested for their ability to inhibit enzymes involved in the processing of monoamines in the CNS, namely Catechol O-Methyl Transferase (COMT), Monoamine Oxidase A and Monoamine Oxidase B. The assay methods used are described below and the results are set out in Table 7.
(a) Catechol O-Methyl Transferase (COMT) Inhibition • Source: Porcine liver • Substrate: 3 mM catechol+S-adenosyl-L-[^3H]methionine • Vehicle: 1% DMSO • Pre-incubation time/Temp: None • Incubation time: 60 minutes @ 37° C. • Incubation buffer: 100 mM potassium phosphate, 10 mM MgCl2, 3 mM DTT containing 12 units/ml adenosine deaminase, pH 7.4 • Quantitation method: Quantitation of [^3H] guiacol. • Significance criteria: ≧50% of maximum stimulation or inhibition (b) Monoamine Oxidase MAO-A Inhibition • Source: Human recombinant • Substrate: 50 μM kynuramine • Vehicle: 1% DMSO • Pre-incubation time/Temp: 15 minutes @ 37° C. • Incubation time: 60 minutes @ 37° C. • Incubation buffer: 100 mM KH2PO4, pH 7.4 • Quantitation method: Spectrofluorimetric quantitation of 4-hydroxyquinoline • Significance criteria: ≧50% of maximum stimulation or inhibition (c) Monoamine Oxidase MAO-B Inhibition • Source: Human recombinant • Substrate: 50 μM kynuramine • Vehicle: 1% DMSO • Pre-incubation time/Temp: 15 minutes @ 37° C. • Incubation time: 60 minutes @ 37° C. • Incubation buffer: 100 mM KH2PO4, pH 7.4 • Quantitation method: Spectrofluorimetric quantitation of 4-hydroxyquinoline • Significance criteria: ≧50% of maximum stimulation or inhibition

[3] = target: T4, Dopamine Transporter (DAT) (Homo sapiens, UniProt Q01959); test: Dopamine transporter (DAT) radioligand binding; conditions: for Percentage Inhibition of Specific Binding, DAT: 10 μM, 0.15 nM [125I] RTI-55
T4 construct: expressed in transfected cells; host or cells: CHO cells
T4 sequence (Q01959 whole entry): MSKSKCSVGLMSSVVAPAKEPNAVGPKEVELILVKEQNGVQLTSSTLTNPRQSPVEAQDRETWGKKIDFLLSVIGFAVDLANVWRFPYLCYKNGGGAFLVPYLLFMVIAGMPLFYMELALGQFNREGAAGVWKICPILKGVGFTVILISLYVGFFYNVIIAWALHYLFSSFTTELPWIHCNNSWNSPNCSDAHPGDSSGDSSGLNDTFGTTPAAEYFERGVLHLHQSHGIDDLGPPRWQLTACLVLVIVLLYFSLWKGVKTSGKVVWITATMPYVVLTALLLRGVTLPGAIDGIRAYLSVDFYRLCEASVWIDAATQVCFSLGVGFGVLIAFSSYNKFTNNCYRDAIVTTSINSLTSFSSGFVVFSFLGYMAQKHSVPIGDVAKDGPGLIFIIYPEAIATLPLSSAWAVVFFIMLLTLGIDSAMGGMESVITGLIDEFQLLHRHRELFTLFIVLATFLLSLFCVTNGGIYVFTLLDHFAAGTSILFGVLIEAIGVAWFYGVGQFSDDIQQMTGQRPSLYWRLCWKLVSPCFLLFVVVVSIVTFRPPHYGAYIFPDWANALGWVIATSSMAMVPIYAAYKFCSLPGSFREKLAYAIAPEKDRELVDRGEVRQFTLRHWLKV
Procedure: as §1

Row | Compound | inhibition of SERT (in words) [1] | IC50 [1] [µM] | Percentage Inhibition of Specific Binding, SERT [1] [%] | Percentage Inhibition of Specific Binding, α2B Receptor (Adrenergic α2B Receptor) [%] | affinity/activity at 5-HT1D/1B (in words) (5-HT1D/1B receptors) | permeability in the Caco-2 model (in words) (Caco-2 monolayer) | Percentage Inhibition of Specific Binding, D3 Receptor (Dopamine D3 Receptor) [%] | inhibitory activity against COMT (in words) [2] | Percentage Inhibition of Enzyme Activity, COMT [2] [%] | DAT binding activity (in words) [3] | Percentage Inhibition of Specific Binding, DAT [3] [%]
1 | COc1cc2c(cc1OC)[C@H]1C[C@H](O)[C@@H](CC(C)C)CN1CC2 (single isomer, unassigned) [Isomer B, 3,11b-cis-dihydrotetrabenazine] | potent inhibitors | 0.35 | 86 | 14 | low affinity for 5-HT1D/1B receptors; also recorded: no inhibitory activity | medium permeability | 7 | no inhibitory activity | −12 | lack Dopamine Transporter (DAT) binding activity | 4
2 | COc1cc2c(cc1OC)[C@H]1C[C@@H](O)[C@@H](CC(C)C)CN1CC2 (single isomer, unassigned) [Isomer C, 3,11b-cis-dihydrotetrabenazine] | potent inhibitors | 2.75 | 77 | −7 | low affinity for 5-HT1D/1B receptors; also recorded: no inhibitory activity | high permeability | 9 | no inhibitory activity | −22 | lack Dopamine Transporter (DAT) binding activity | −2
